System: 3×Tg mice
Test: Novel object recognition test
Type: in vivo, mouse
Details: vs sham
Experimental: All experiments were carried out in accordance with the National Institutes of Health Guidelines for animal research (Guide for the Care and Use of Laboratory Animal) and approved by the National Cheng Kung University Institutional Animal Care and Use Committee. The 3×Tg mice (B6; 129-Psen1tm1Mpm Tg[APPSwe, tauP301L]1Lfa/Mmjax), were obtained from the Jackson Laboratory (Bar Harbor, […], USA) and housed in a controlled room (temperature 23±1° C., humidity 55±5%, 12-hour light/12-hour dark cycle, light cycle begins at 06:00) located in the Laboratory Animal Center of National Cheng Kung University (Tainan, Taiwan) with unrestricted access to food and water. All mice were genotyped using a protocol provided by the Jackson Laboratory. The 3×Tg mice develop intracellular Aβ immuno-positive staining as early as 3-4 months and aggregates of hyperphosphorylated tau in the hippocampus around 12 months of age. Impaired synaptic transmission and long-term potentiation are evident about 6 months of age. At the age of 10 months (body weight, 31˜35 g), five 3×Tg mice received four consecutive weekly injections of Zfra4-10 solution (2 mM in phosphate buffered saline [PBS], 100 μL each injection) from the tail veins. […]
The experiment was performed from 6 PM each day. […] The cumulative times spent by the mouse in exploring each of the objects were recorded during a 5-minute period. […] The times spent in exploring each object during a 5-minute period were recorded in either the STM or the LTM test. […]
All experimental results were represented as mean±standard error of the mean. The results for novel object recognition test, probe test of Morris water maze, relative ventricle area, and relative optical density of pS412-tau immunoreactivity were analyzed by two-tailed Mann-Whitney test, whereas the Aβ-positive cell number was analyzed by two-tailed unpaired t-test. The Morris water maze learning section results were analyzed using a repeated mixed-model analysis of variance with training session as within-subject factor and the Zfra injection as between-subject factor. […]

Substance: RRSSSCK [Zfra4-10, truncated zinc finger-like peptide, amino acids 4-10 of Zfra]
- exploring times of the novel object, short-term memory task (3×Tg mice, 2 hours after acquisition, P=0.074): marginal, but not significant, increase
- novel object exploring times, long-term memory task (3×Tg mice, 24 hours after acquisition, P=0.008): significantly higher
- exploring times on each object, acquisition phase (11-month-old 3×Tg mice, one week after four weekly tail vein injections (2 mM, 100 μL), 5-minute acquisition, P>0.5): approximately equal exploring times on each object

From patent US10344065B2, “Method for treating Alzheimer's disease and method for downregulating protein aggregation in brain” (National Cheng Kung University, priority 2017, dated 2019)
